pKi: −log10 of the molar value. Read-outs that look alike come from different tables or passages of the source.

Series [1] can be described thus: Open-label absolute bioavailability / pharmacokinetic study of intranasal ketamine in healthy volunteers. The series is classed as in vivo, human. Conditions: for AUC(0-t): read-out: AUC (0-4 hr); for bioavailability / Absolute Bioavailability (%): relative to IV, dose-corrected ratio of least squares geometric mean AUC(inf). On the procedure: This was an open-label study in 25 healthy volunteers. Subjects received single doses of ketamine by intravenous (IV) injection (20 mg), intramuscular (IM) injection (20 mg), or intranasal (IN) administration (20 mg, 40 mg and 80 mg).
Blood samples for the measurement of plasma concentrations of (R)- and (S)-ketamine and (R)- and (S)-norketamine were collected pre-dose and at 0.033, 0.083, 0.167, 0.25, 0.333, 0.5, 0.75, 1, 1.25, 2, 2.5, 3, 4, 6, 8, 12, 16, and 24 hours post-dose for each study period.
All estimates for the parent and metabolite were consistent within each formulation or dose for the racemate, (R)-, and (S)-enantiomers. After IN administration, the estimates were slightly higher for the metabolite than the parent.

The target of another series is NMDA receptors. The settings on record: cited from earlier work.
The conditions of series [2]: acidic pH near 4.5. An excerpt: A Buffer may be used to control the pH of the nasal spray solution at, or near 4.5. […] Also, the local pH value inside the nasal cavity directly influences the rate and extent of drug absorption. […] Additionally, maintaining pH at or above 4.0 helps to reduce local nasal tract irritation. The buffer is optional.
[3] abbreviates: Dose 20 mg, hydro-alcoholic composition, minimum-maximum.
[4] abbreviates: Dose 40 mg, hydro-alcoholic composition, minimum-maximum.
Where [5] appears, read: human, plasma, inhaled or intranasal, 20 mg, AUC (0-1 hr), intranasal, effective amount 20 mg.
Setting [6] is: human, plasma, inhaled or intranasal, 20 mg, intranasal, effective amount 20 mg.
Setting [7] is: human, plasma, inhaled or intranasal, intranasal, effective amount 20 mg.
[8] abbreviates: human, plasma, other: intranasal, Dose 20 mg, hydro-alcoholic composition, minimum-maximum.
[9] abbreviates: human, plasma, other: intranasal, Dose 40 mg, hydro-alcoholic composition, minimum-maximum.
Where [10] appears, read: human, plasma, other: intranasal, IN administration of racemic ketamine 20 mg.
Where [11] appears, read: human, plasma, other: intranasal, IN administration of racemic ketamine 40 mg.
Setting [12] is: human, plasma, other: intranasal, IN administration of racemic ketamine 80 mg.
Setting [13] is: IN administration of racemic ketamine 20 mg.
Where [14] appears, read: IN administration of racemic ketamine 40 mg.
[15] abbreviates: IN administration of racemic ketamine 80 mg.
Where [16] appears, read: Dose 10 mg, hydro-alcoholic composition, minimum-maximum.
[17] abbreviates: human, plasma, other: intranasal, Dose 10 mg, hydro-alcoholic composition, minimum-maximum.

As to `CNC1(c2ccccc2Cl)CCCCC1=O` (racemic) [(RS)-Ketamine, (2-(2-chlorophenyl)-2-(methylamino)-cyclohexanone)], the “AUC(0-1 hr)” value was 28.7-127 hr′ng/mL in series [1] (setting [3]); 71.4-225 hr′ng/mL in series [1] (setting [4]); 28.7 to 127 ng·h/mL in series [1] (setting [5]); 71.4 to 225 ng·h/mL in series [1] (human, plasma, inhaled or intranasal, 40 milligrams, AUC (0-1 hr), intranasal, effective amount 40 milligrams). Besides, the results for the “AUC(0-4 hr)” value in series [1] (setting [3]) and in series [1] (setting [4]) were 60.0-209 hr′ng/mL and 160-433 hr′ng/mL, respectively. Further, the AUC(0-t) in series [1] (setting [6]) is 60 to 209 ng·h/mL; in series [1] (human, plasma, inhaled or intranasal, 40 milligrams, intranasal, effective amount 40 milligrams), 160 to 433 ng·h/mL. Also, the Tmax was 4.98 to 30 min in series [1] (setting [7]); 10 to 30 min in series [1] (human, plasma, inhaled or intranasal, intranasal, effective amount 40 milligrams); 4.98 to 30 min in series [1] (setting [8]); 10 to 30 min in series [1] (setting [9]). Further, the Cmax in series [1] (setting [8]) was 48 to 280 ng/mL; in series [1] (setting [9]), 94.7 to 367 ng/mL. The bioavailability in series [1] (setting [10]) came to 82.1%; in series [1] (setting [11]), 69.1%; in series [1] (setting [12]), 51.8%.

As to `NC1(c2ccccc2Cl)CCCCC1=O` (racemic) [(RS)-Norketamine], the “Absolute Bioavailability (%)” value in series [1] (setting [13]) is reported as 94.4%; in series [1] (setting [14]) it was 78.8%; in series [1] (setting [15]), 54.8%.

With `CN[C@@]1(c2ccccc2Cl)CCCCC1=O` [(R)-Ketamine], the “AUC(0-1 hr)” value is 15.9-70.8 hr′ng/mL in series [1] (setting [16]) and 40.5-129 hr′ng/mL in series [1] (setting [3]). For the same molecule, the “AUC(0-4 hr)” value in series [1] (setting [16]) is 33.6-118 hr′ng/mL; in series [1] (setting [3]), 93.0-251 hr′ng/mL. For the same molecule, the maximum concentration (Cmax) in series [1] (setting [17]) lay within 26.5 to 155 ng/mL; in series [1] (setting [8]) it was 53.4 to 206 ng/mL. In addition, the values for the Tmax in series [1] (setting [17]) and in series [1] (setting [8]) were 4.98 to 30 min and 10 to 30 min, respectively. Moreover, the bioavailability in series [1] (setting [10]) was 81.6%; in series [1] (setting [11]), 68.6%; in series [1] (setting [12]), 51.1%. Besides, at NMDA receptors, the pKi is 5.96.

In the case of `N[C@@]1(c2ccccc2Cl)CCCCC1=O` [(R)-Norketamine], the “Absolute Bioavailability (%)” value is 90.7% in series [1] (setting [13]), 77.8% in series [1] (setting [14]) and 54.3% in series [1] (setting [15]).

For the molecule `CN[C@]1(c2ccccc2Cl)CCCCC1=O` [(S)-Ketamine], the “AUC(0-1 hr)” value in series [1] (setting [16]) was 12.8-55.8 hr′ng/mL; in series [1] (setting [3]), 30.9-96.7 hr′ng/mL; in series [1] (human, plasma, inhaled or intranasal, 10 mg, AUC (0-1 hr), intranasal, effective amount 10 mg) it was 12.8 to 55.8 ng·h/mL; in series [1] (setting [5]) it was 30.9 to 96.7 ng·h/mL. In addition, the “AUC(0-4 hr)” value is recorded as 26.4-90.4 hr′ng/mL in series [1] (setting [16]) and 66.9-181 hr′ng/mL in series [1] (setting [3]). Besides, the AUC(0-t) in series [1] (human, plasma, inhaled or intranasal, 10 mg, intranasal, effective amount 10 mg) fell in the range of 26.4 to 90.4 ng·h/mL; in series [1] (setting [6]) it was 66.9 to 181 ng·h/mL. Besides, the Tmax in series [1] (human, plasma, inhaled or intranasal, intranasal, effective amount 10 mg) lay within 5 to 19.8 min; in series [1] (setting [7]) it was 10 to 30 min; in series [1] (setting [17]) it was 5 to 20 min; in series [1] (setting [8]) it was 10 to 30 min. For the same molecule, the Cmax in series [1] (setting [17]) lay within 21.4 to 125 ng/mL; in series [1] (setting [8]), 41.3 to 161 ng/mL. Also, the bioavailability in series [1] (setting [10]) came to 82.4%; in series [1] (setting [11]), 68.9%; in series [1] (setting [12]), 51.5%. The pKi at NMDA receptors is 5.49.

In the case of `N[C@]1(c2ccccc2Cl)CCCCC1=O` [(S)-Norketamine], the “Absolute Bioavailability (%)” value amounted to 92.4% in series [1] (setting [13]), 77.8% in series [1] (setting [14]) and 54.9% in series [1] (setting [15]).

As for `CNC1(c2ccccc2Cl)CCCCC1=O.Cl` (stereo not drawn) [Es/ketamine HCl], in series [2], the stability of solution entry was “better stability”.

Usually Cmax stands for the peak of the concentration-time curve. What is called bioavailability is dose-corrected exposure relative to a reference, in per cent. A word on the pKi: it is the Ki on a negative log10 scale, so that one unit is a factor of ten.

Source of the values: US20250241873A1, “KETAMINE NASAL SPRAY FORMULATION AND METHODS OF USE” (INESKET LLC, priority 2024, published 2025).
